Measurements taken from patent publication US20260062422A1 (Halda Therapeutics OpCo, Inc., priority 2022, published 2026).

Experiments:
[1] = system: T-Rex 293 cell line SC cells lacking increased expression of progesterone receptor isoform B protein; test: Cellular growth inhibition, T-Rex 293 SC cells without doxycycline, Example 45; assay type: cell-based; conditions: T-Rex 293 SC cells not exposed to doxycycline, 72 hours treatment, CellTiter-Glo 2.0
Description: The following types of cells were prepared for this experiment: (i) a T-Rex 293 cell line having increased expression of progesterone receptor isoform B protein due to exposure to doxycycline and (ii) a T-Rex 293 cell line lacking increased expression of progesterone receptor isoform B protein. Ability of the test compounds to inhibit proliferation of the foregoing cell types was evaluated according to the procedures set forth below.
The doxycycline-inducible progesterone receptor isoform B protein expressing cell line was established using the following protocol: T-Rex 293 cells were purchased from Invitrogen (Cat #R71007) and transfected using Lipofectamine 2000 with the wild-type progesterone receptor B protein sequence cloned into the pcDNA4/TO vector. Transfected cells were selected using 400 μg/mL Zeocin (Invitrogen Cat #R25001). Following selection, single clones were raised and maintained in Dulbecco's Modified Eagle Medium (DMEM) supplemented with 10% w/w Tetracycline-free fetal bovine serum (FBS) and 250 μg/mL Zeocin. Clones were analyzed for expression of progesterone receptor isoform B protein in the presence and absence of 10 ng/mL doxycycline (Sigma Cat #D9891), and a single doxycycline-inducible clone (hereinafter “SC”) was selected for use in downstream assays.
The SC cells were seeded on poly-D-lysine coated, black clear-bottom 384-well plates at 2500/well, in 25 μL Phenol Red Free Dulbecco's Modified Eagle Medium (DMEM) supplemented with 10% w/w charcoal-dextran treated fetal bovine serum (FBS) and 1% w/w pen-strep, with or without 10 ng/mL doxycycline. Pen-Strep is a commercially available mixture of penicillin G and streptomycin, which is used in mammalian cell culture media to prevent bacterial contamination. Phenol Red Free Dulbecco's Modified Eagle Medium (DMEM) supplemented with 10% w/w charcoal-dextran treated fetal bovine serum (FBS) and 1% w/w pen-strep, with or without 10 ng/mL doxycycline is herein referred to as Treatment Medium. Following seeding of cells in the plates, the plates were spun at 300×g for 30 seconds, then equilibrated to room temperature for 30 minutes, and then deposited in a humidified tissue culture incubator maintained at 37° C. with 5% CO2.
At 24 hours after seeding of the cells, dilutions of test compound were prepared in DMSO and dissolved in Treatment Medium, to achieve a final DMSO concentration of 0.5% w/w, thereby providing the Test Compound Solution. A 25 μL aliquot of the Test Compound Solution was added to cells in the well plates. An equal volume of a solution containing DMSO and Treatment Medium was used as a negative control. Following treatment of cells with Test Compound Solution or said equal volume of a solution containing DMSO and Treatment Medium, the plates were spun at 300×g for 30 seconds, and then left in an incubator for 72 hours.
At the end of the treatment duration, cell viability was quantified with CellTiter-Glo 2.0 reagent (Promega Cat #G9243). For this purpose, plates were equilibrated to room temperature for 30 minutes, and then 25 μL of CellTiter-Glo 2.0 reagent was added to cells in the plate wells. Plates were then agitated on a shaker for two minutes at 500 rpm and subsequently incubated at room temperature for 10 minutes. Following incubation, the plates were spun at 3000×g for 30 seconds, then sealed with an optical adhesive cover, and luminescence readings were measured with an EnVision Plate Reader (Perkin Elmer).
Data was normalized using zero luminescence for baseline. A four-parameter non-linear regression curve fit was applied to dose-response data in GraphPad Prism data analysis software to determine the half-maximal growth inhibitory concentration (GI50) for each test compound.

[2] = system: VCaP cells; test: Cellular growth inhibition assay for VCaP cells, CellTiter-Glo; assay type: cell-based, human; conditions: 72 hours treatment, CellTiter-Glo 2.0
Summary of the method: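 GI50 values come from four-parameter curve fits of luminescence data normalized to a zero baseline. Compound, in medium with 0.5% DMSO, was added one day after plating and left for 72 h before CellTiter-Glo 2.0 addition.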

| Structure (SMILES) | GI50 [1] [nM] | GI50 ([2]; Homo sapiens, VCaP, 72 h) [nM] | GI50 [2] [nM] |
| --- | --- | --- | --- |
| Cc1sc2c(c1C)C(c1ccc(Cl)cc1)=N[C@@H](CC(=O)NCCOCCOCCOCCOCCOCCOCCN(C)c1ncc(C(=O)N[C@H]3C(C)(C)[C@H](Oc4ccc(C#N)c(Cl)c4)C3(C)C)cn1)c1nnc(C)n1-2 [Compound I-4] | 1500 to 3000 | < 500 | – |
| Cc1sc2c(c1C)C(c1ccc(Cl)cc1)=N[C@@H](CC(=O)NCCCN1CCN(CCCN(C)c3ncc(C(=O)N[C@H]4C(C)(C)[C@H](Oc5ccc(C#N)c(Cl)c5)C4(C)C)cn3)CC1)c1nnc(C)n1-2 [Compound I-5, N-((1r,3r)-3-(3-chloro-4-cyanophenoxy)-2,2,4,4-tetramethylcyclobutyl)-2-((3-(4-(3-(2-((S)-4-(4-chlorophenyl)-2,3,9-trimethyl-6H-thieno[3,2-f][1,2,4]triazolo[4,3-a][1,4]diazepin-6-yl)acetamido)propyl)piperazin-1-yl)propyl)(methyl)amino)pyrimidine-5-carboxamide] | – | < 500 | – |
| Cc1sc2c(c1C)C(c1ccc(Cl)cc1)=N[C@H](CC(=O)NCCOCCOCCOCCOCCOC1CCN(c3ncc(C(=O)N[C@H]4C(C)(C)[C@H](Oc5ccc(C#N)c(Cl)c5)C4(C)C)cn3)CC1)c1nnc(C)n1-2 [Compound I-14] | 1500 to 3000 | > 3000 | – |
| Cc1sc2c(c1C)C(c1ccc(Cl)cc1)=N[C@@H](CC(=O)NCCCCCOC1CCN(c3ncc(C(=O)N[C@H]4C(C)(C)[C@H](Oc5ccc(C#N)c(Cl)c5)C4(C)C)cn3)CC1)c1nnc(C)n1-2 [Compound I-22, N-((1r,3r)-3-(3-chloro-4-cyanophenoxy)-2,2,4,4-tetramethylcyclobutyl)-2-(4-((5-(2-((S)-4-(4-chlorophenyl)-2,3,9-trimethyl-6H-thieno[3,2-A][1,2,4]triazolo[4,3-a][1,4]diazepin-6-yl)acetamido)pentyl)oxy)piperidin-1-yl)pyrimidine-5-carboxamide] | – | – | < 500 |
| Cc1sc2c(c1C)C(c1ccc(OCCOC3CCN(c4ncc(C(=O)N[C@H]5C(C)(C)[C@H](Oc6ccc(C#N)c(Cl)c6)C5(C)C)cn4)CC3)cc1)=N[C@@H](CC(=O)O)c1nnc(C)n1-2 [Compound I-38] | > 3000 | > 3000 | – |
| Cc1sc2c(c1C)C(c1ccc(OCCOCCOC3CCN(c4ncc(C(=O)N[C@H]5C(C)(C)[C@H](Oc6ccc(C#N)c(Cl)c6)C5(C)C)cn4)CC3)cc1)=N[C@@H](CC(=O)O)c1nnc(C)n1-2 [Compound I-39] | – | > 3000 | – |
| Cc1sc2c(c1C)C(c1ccc(OCCOCCOCCOC3CCN(c4ncc(C(=O)N[C@H]5C(C)(C)[C@H](Oc6ccc(C#N)c(Cl)c6)C5(C)C)cn4)CC3)cc1)=N[C@@H](CC(=O)O)c1nnc(C)n1-2 [Compound I-40] | – | > 3000 | – |
| Cc1sc2c(c1C)C(c1cccc(OCCOC3CCN(c4ncc(C(=O)N[C@H]5C(C)(C)[C@H](Oc6ccc(C#N)c(Cl)c6)C5(C)C)cn4)CC3)c1)=N[C@@H](CC(=O)O)c1nnc(C)n1-2 [Compound I-41] | > 3000 | > 3000 | – |
| Cc1sc2c(c1C)C(c1cccc(OCCOCCOC3CCN(c4ncc(C(=O)N[C@H]5C(C)(C)[C@H](Oc6ccc(C#N)c(Cl)c6)C5(C)C)cn4)CC3)c1)=N[C@@H](CC(=O)O)c1nnc(C)n1-2 [Compound I-42] | – | 1500 to 3000 | – |
| Cc1sc2c(c1C)C(c1cccc(OCCOCCOCCOC3CCN(c4ncc(C(=O)N[C@H]5C(C)(C)[C@H](Oc6ccc(C#N)c(Cl)c6)C5(C)C)cn4)CC3)c1)=N[C@@H](CC(=O)O)c1nnc(C)n1-2 [Compound I-43] | – | > 3000 | – |
| CCNC(=O)C[C@@H]1N=C(c2ccc(OCCOCCOCCOC3CCN(c4ncc(C(=O)N[C@H]5C(C)(C)[C@H](Oc6ccc(C#N)c(Cl)c6)C5(C)C)cn4)CC3)cc2)c2c(sc(C)c2C)-n2c(C)nnc21 [Compound I-45, N-((1r,3r)-3-(3-chloro-4-cyanophenoxy)-2,2,4,4-tetramethylcyclobutyl)-2-(4-(2-(2-(2-(4-((S)-6-(2-(ethylamino)-2-oxoethyl)-2,3,9-trimethyl-6H-thieno[3,2-f][1,2,4]triazolo[4,3-a][1,4]diazepin-4-yl)phenoxy)ethoxy)ethoxy)ethoxy)piperidin-1-yl)pyrimidine-5-carboxamide] | – | < 500 | – |
| CCNC(=O)C[C@@H]1N=C(c2cccc(OCCOCCOC3CCN(c4ncc(C(=O)N[C@H]5C(C)(C)[C@H](Oc6ccc(C#N)c(Cl)c6)C5(C)C)cn4)CC3)c2)c2c(sc(C)c2C)-n2c(C)nnc21 [Compound I-47, N-((1r,3r)-3-(3-chloro-4-cyanophenoxy)-2,2,4,4-tetramethylcyclobutyl)-2-(4-(2-(2-(3-((S)-6-(2-(ethylamino)-2-oxoethyl)-2,3,9-trimethyl-6H-thieno[3,2-f][1,2,4]triazolo[4,3-a][1,4]diazepin-4-yl)phenoxy)ethoxy)ethoxy)piperidin-1-yl)pyrimidine-5-carboxamide] | – | 500 to 1500 | – |
| CCNC(=O)C[C@@H]1N=C(c2cccc(OCCOCCOCCOC3CCN(c4ncc(C(=O)N[C@H]5C(C)(C)[C@H](Oc6ccc(C#N)c(Cl)c6)C5(C)C)cn4)CC3)c2)c2c(sc(C)c2C)-n2c(C)nnc21 [Compound I-48, N-((1r,3r)-3-(3-chloro-4-cyanophenoxy)-2,2,4,4-tetramethylcyclobutyl)-2-(4-(2-(2-(2-(3-((S)-6-(2-(ethylamino)-2-oxoethyl)-2,3,9-trimethyl-6H-thieno[3,2-f][1,2,4]triazolo[4,3-a][1,4]diazepin-4-yl)phenoxy)ethoxy)ethoxy)ethoxy)piperidin-1-yl)pyrimidine-5-carboxamide] | – | < 500 | – |
| CCNC(=O)C[C@@H]1N=C(c2ccc(OCCCN(C)c3ncc(C(=O)N[C@H]4C(C)(C)[C@H](Oc5ccc(C#N)c(Cl)c5)C4(C)C)cn3)cc2)c2c(sc(C)c2C)-n2c(C)nnc21 [Compound I-81] | – | < 500 | – |
| CCNC(=O)C[C@@H]1N=C(c2ccc(OCCCCc3ncc(C(=O)N[C@H]4C(C)(C)[C@H](Oc5ccc(C#N)c(Cl)c5)C4(C)C)cn3)cc2)c2c(sc(C)c2C)-n2c(C)nnc21 [Compound I-86] | – | 500 to 1500 | – |
| CCNC(=O)C[C@@H]1N=C(c2ccc(CCCN(C)c3ncc(C(=O)N[C@H]4C(C)(C)[C@H](Oc5ccc(C#N)c(Cl)c5)C4(C)C)cn3)cc2)c2c(sc(C)c2C)-n2c(C)nnc21 [Compound I-104] | – | > 3000 | – |
| CCNC(=O)C[C@@H]1N=C(c2ccc(N3CC(N(C)C4CN(c5ncc(C(=O)N[C@H]6C(C)(C)[C@H](Oc7ccc(C#N)c(Cl)c7)C6(C)C)cn5)C4)C3)cc2)c2c(sc(C)c2C)-n2c(C)nnc21 [Compound I-121] | – | < 500 | – |
| CCNC(=O)C[C@@H]1N=C(c2ccc(N3CCC(N(C)C4CN(c5ncc(C(=O)N[C@H]6C(C)(C)[C@H](Oc7ccc(C#N)c(Cl)c7)C6(C)C)cn5)C4)CC3)cc2)c2c(sc(C)c2C)-n2c(C)nnc21 [Compound I-123] | – | < 500 | – |
| CCNC(=O)C[C@@H]1N=C(c2ccc(N3CCC(CN4CC(Oc5ncc(C(=O)N[C@H]6C(C)(C)[C@H](Oc7ccc(C#N)c(Cl)c7)C6(C)C)cn5)C4)CC3)cc2)c2c(sc(C)c2C)-n2c(C)nnc21 [Compound I-124] | – | 500 to 1500 | – |
| Cc1sc2c(c1C)C(c1ccc(OC3CC4(CCN(c5ncc(C(=O)N[C@H]6C(C)(C)[C@H](Oc7ccc(C#N)c(Cl)c7)C6(C)C)cn5)CC4)C3)cc1)=NC(Cc1ncco1)c1nnc(C)n1-2 (some centres unmarked) [Compound I-166] | – | < 500 | – |
| Cc1sc2c(c1C)C(c1ccc(CC3CC4(CCN(c5ncc(C(=O)N[C@H]6C(C)(C)[C@H](Oc7ccc(C#N)c(Cl)c7)C6(C)C)cn5)CC4)C3)cc1)=N[C@@H](C)c1nnc(C)n1-2 [Compound I-303] | – | – | 1500 to 3000 |
| Cc1sc2c(c1C)C(c1ccc(CC3CC4(CCN(c5ncc(C(=O)N[C@H]6C(C)(C)[C@H](Oc7ccc(C#N)c(Cl)c7)C6(C)C)cn5)CC4)C3)cc1)=N[C@@H](C)c1nnc(C)n1-2 [Compound I-436] | – | > 3000 | – |
